From patent publication US20110004019A1, “Parakeratosis Inhibitor, Pore-Shrinking Agent, Or Rough Skin Inhibiting/Ameliorating Agent, And External Composition For Skin Containing The Same” (SHISEIDO COMPANY LTD., priority 2008, published 2011)

Assays:
[1] = tested on: back skin of hairless mice (HR-1) applied with oleic acid; experiment: Test for Ameliorating Effect to Rough Skin Induced by Applying Oleic Acid (TEWL); type: in vivo; conditions: for TEWL value: 3 mass % sample after 10 mass % oleic acid, 3 days, average of four mice, higher = worse rough skin, control = 12.0; for ΔTEWL value compared with the control aqueous solution (text on Table 3): 3 mass %, hairless mice, oleic acid
Protocol: The difference was compared with the control (control aqueous solution), and the effect was determined. […] The TEWL was measured using TEWA Meter TM210 (Courage+Khazaka Electronic GmBH).
100 μl of 10 mass % oleic acid solution (solvent: ethanol) was applied on the back of hairless mice (HR-1, four mice per group), and then 100 μl of the sample solution was applied thereon. The day after this procedure was continued for 3 days, the TEWL value of the back was measured, and the average value of the four mice was calculated. The higher the TEWL value is, the worse rough skin becomes.

[2] = tested on: back skin of hairless mouse (HR-1) applied with oleic acid; experiment: Test for Parakeratosis-Inhibiting Effect (oleic acid applied on the back of hairless mouse; rough skin visual score and parakeratosis value); type: in vivo; conditions: for Parakeratosis value (Average for 5 mice): 3.0 mass % sample after 10 mass % oleic acid; for Parakeratosis value (Average for 5 mice) / Parakeratosis value (Average for 4 mice) / Visual observation value (Average for 4 mice): 3 days; for Parakeratosis value (Average for 5 mice) / Parakeratosis value (Average for 4 mice): control = 2.0; for Parakeratosis value (Average for 4 mice) / Visual observation value (Average for 4 mice): 3 mass % sample after 10 mass % oleic acid; for Parakeratosis value (Average for 4 mice): tape-stripped stratum corneum, hematoxylin, higher = more parakeratosis; for Visual observation value (Average for 4 mice): back of hairless mouse, rough skin (desquamation and erythema) score, control = 2.0, no roughness = 0.0; for effect of inhibiting parakeratosis (Tables 1 and 2) / effects of inhibiting rough skin such as desquamation and erythema caused by unsaturated fatty acids (text on Table 1): 3 mass %, hairless mouse, oleic acid
Protocol: 3 mass % test compound aqueous solution (containing 30 mass % ethanol) was primarily prepared as a sample solution. The pH was adjusted with hydrochloric acid or sodium hydroxide so as to be 7.0 to 7.5. When the solubility of test compound was low, the sample solution was prepared depending on the solubility.
100 μl of 10 mass % oleic acid solution (solvent: ethanol) was applied on the back of a hairless mouse (HR-1; Hoshino Laboratory Animals), and then 100 μl of the sample solution was applied thereon. […] In the evaluation, the condition of the skin on which the control (control aqueous solution) was applied set a score of 2.0 and the skin condition without roughness set a score of 0.0. Then, the skin condition was scored by visual observation in increments of 0.25 between them. At the same time, the stratum corneum at the back of the hairless mouse was peeled off with tape, the nuclei were stained by hematoxylin, and the degree of parakeratosis was observed and evaluated using a parakeratosis value within a range of 1.0 to 3.0 (in 0.25 increments). The higher the value is, the more the number of nucleated cell in the stratum corneum is, i.e., the more the parakeratosis is advanced.
The evaluation was conducted according to the plan which was approved in the in-house council on animal experiment, complying with Act on Welfare and Management of Animals and other related acts.

[3] = tested on: cheek of sensory person (who has sensitive skin); experiment: Sensory Irritation Test; type: in vivo, human; conditions: for Evaluation (sensory irritation): 1 mL on cheek, ten minutes; for sensory irritation (Tables 4 and 5): 3 mass %, test subject with sensitive skin
Protocol: Then, the irritating sensation was evaluated every 30 seconds for ten minutes immediately after the application, and a final evaluation was reported (n=2). The evaluation of the irritating sensation was based on the following rating criteria in four levels, and each average rating was calculated to be classified by the following criteria.
3: The test cannot be continued because of extremely strong irritation such as tingly, burning, prickly, and itching sensation. 2: The use is intolerable because of strong irritation such as tingly, burning, prickly, and itching sensation. 1: The use is tolerable though slight irritation such as tingly, burning, prickly, and itching sensation is felt. 0: The irritation is not particularly felt.
A: Average rating is less than 0.2 B: Average rating is 0.2 or greater to less than 1.0 C: Average rating is 1.0 or greater to less than 2.0 D: Average rating is 2.0 or greater

[4] = tested on: IL-1α production in human normal keratinocytes; experiment: Inhibiting Effect of Increased Production of Inflammatory Cytokine Caused by Oleic Acid; type: cell-based; conditions: for IL-lα (pmol/ml, Mean ± S.D.): 8 hours
Protocol: LTD., were incubated using KGM culture medium in a 75 cm^2 flask for 3 days. The cells were trypsinized according to a normal method, collected, and then inoculated into a 24 well plate (Corning Inc.) so as to be 40,000 cells per 0.5 ml of KGM culture medium. After incubation for another 3 days, oleic acid, or oleic acid and test compound, were added thereto. […] As a control, ethanol was added instead of oleic acid. After 8 hours, each culture was collected, and the amount of IL-1α was measured with a quantification kit (from R&D systems).

[5] = 3.0 mass % sample aqueous solution, n=2 (Table 5)
[6] = 3 mass % sample aqueous solution, n=2 (Table 4)

Structure (SMILES)	TEWL value [1]	ΔTEWL value compared with the control aqueous solution (text on Table 3) [1]	Parakeratosis value (Average for 5 mice) [2]	Parakeratosis value (Average for 4 mice) [2]	Visual observation value (Average for 4 mice) [2]	effect of inhibiting parakeratosis (Tables 1 and 2) [2]	effects of inhibiting rough skin such as desquamation and erythema caused by unsaturated fatty acids (text on Table 1) [2]	Evaluation (sensory irritation) [3, 5]	sensory irritation (Tables 4 and 5) [3]	Evaluation (sensory irritation) [3, 6]	further results
CC(=O)N[C@@H](CCC(N)=O)C(=O)O [N-acetyl-L-glutamine, reference compound]	13.2	did not show such effects	1.9	1.9	1.9	did not show such effects	did not show such effects	–	–	–	–
Cl.N=C(N)N[C@@H](CCC(=O)O)C(=O)O [N-amidino-L-glutamic acid hydrochloride]	–	–	1.1	–	–	lowered the parakeratosis value	–	A (Average rating is less than 0.2)	had no problem in sensory irritation	–	–
N=C(N)N[C@@H](CCC(=O)O)C(=O)O [N-amidino-L-glutamic acid]	–	–	1.1	–	–	lowered the parakeratosis value	–	A (Average rating is less than 0.2)	had no problem in sensory irritation	–	–
CCNC(=O)CC[C@H](NC(C)=O)C(=O)NCC [N-acetyl-N′,N″-diethyl-L-glutamic acid-1,5-diamide]	–	–	–	–	–	–	–	–	–	–	IL-lα (pmol/ml, Mean ± S.D.) ([4]; 10 μM oleic acid + 500 μM test compound, solvent 4.7 ± 1.5, p < 0.01 vs. oleic acid): 225.5 ± 3.2 pmol/mL; inhibition of the increased production of IL-1α caused by oleic acid (Table 6) ([4]; 10 μM oleic acid, 500 μM (0.012%) compound): significantly inhibits the increased production of IL-1α
CC(=O)N[C@@H](CCC(=O)O)C(=O)O [N-acetyl-L-glutamic acid, reference compound]	10.1	inferior to that of the compounds of the present invention	–	1.2	1.2	inferior to those of the compounds of the present invention	–	–	–	–	–
NC(=O)NCCC[C@H](N)C(=O)O [Citrulline, reference compound]	–	–	2.0	–	–	did not show such effects	–	–	–	–	–
O=C(O)CC[C@H](NC(=O)OCc1ccccc1)C(=O)O [N-benzyloxycarbonyl-L-glutamic acid]	6.8	significantly lowered the ΔTEWL value	–	0.9	0.9	–	showed the effects of inhibiting rough skin	–	had no problem in sensory irritation	A (Average rating is less than 0.2)	–
CN[C@@H](CCC(=O)O)C(=O)O [N-methyl-L-glutamic acid]	6.4	significantly lowered the ΔTEWL value	–	0.8	0.8	–	showed the effects of inhibiting rough skin	–	had no problem in sensory irritation	A (Average rating is less than 0.2)	–
NC(=O)N[C@@H](CCC(=O)O)C(=O)O [N-carbamoyl-L-glutamic acid]	6.4	significantly lowered the ΔTEWL value	–	0.7	0.7	–	showed the effects of inhibiting rough skin	–	had no problem in sensory irritation	A (Average rating is less than 0.2)	–
N=C(N)N[C@H](CCC(=O)O)C(=O)O [N-amidino-D-glutamic acid]	–	–	1.2	–	–	lowered the parakeratosis value	–	A (Average rating is less than 0.2)	had no problem in sensory irritation	–	–
CNC(CCC(=O)O)C(=O)O (racemic) [N-methyl-DL-glutamic acid]	7.9	significantly lowered the ΔTEWL value	–	0.9	0.9	–	showed the effects of inhibiting rough skin	–	had no problem in sensory irritation	A (Average rating is less than 0.2)	–
NCCCC(=O)O [γ-aminobutyric acid, reference compound]	–	–	–	–	–	–	–	C (Average rating is 1.0 or greater to less than 2.0)	resulted in giving sensory irritation	C (Average rating is 1.0 or greater to less than 2.0)	–
N=C(N)NC(CCC(=O)O)C(=O)O (racemic) [N-amidino-DL-glutamic acid]	–	–	1.2	–	–	lowered the parakeratosis value	–	A (Average rating is less than 0.2)	had no problem in sensory irritation	–	–
CCCCCCCC/C=C\CCCCCCCC(=O)O [oleic acid, reference compound]	–	–	–	–	–	–	–	–	–	–	IL-lα (pmol/ml, Mean ± S.D.) ([4]; 10 μM oleic acid alone, solvent (ethanol) 4.7 ± 1.5): 239.8 ± 1.3 pmol/mL
N=C(N)N[C@@H](CCC(=O)[O-])C(=O)[O-].[Na+].[Na+] [Sodium N-amidino-L-glutamate]	–	–	1.1	–	–	lowered the parakeratosis value	–	A (Average rating is less than 0.2)	had no problem in sensory irritation	–	–
